Active and inactive are the calls of the source. No cut-off for these calls is given here.
What was measured:
[1] = Induction of HRE/Luc activity in human Ishikawa PR-B cells transfected with GR siRNA at 10 uM incubated for 24 hrs in presence of progesterone by luciferase reporter gene assay relative to control; format: functional
[2] = Induction of epithelial cells proliferation in uterus of ovariectomized CD-1 mouse at 4 mg/kg, ip administered once a day for 7 days in presence of progesterone and measured on day 7 at 6 hrs post-last dosage by PCNA staining based immunohistochemistry (reference value: 7%); format: organism-based; conditions: in vivo, 168 h, time 7 day
Ishikawa [3] = experiment: Potentiation of progesterone signalling in human Ishikawa null cells transfected with wild type PR assessed as induction of HRE/uc activity at 10 uM incubated for 24 hrs in presence of progesterone by luciferase reporter gene assay relative to control; format: functional
Ishikawa [4] = experiment: Increase in PR-B protein expression in human Ishikawa PR-B cells at 10 uM incubated for 24 hrs in presence of 100 nM progesterone by western blot analysis; format: functional, cell-based
[5] = target: T1, Glucocorticoid receptor (Homo sapiens) (UniProt P04150); experiment: Induction of glucocorticoid receptor in human Ishikawa PR-B cells assessed as increase in HRE-luc activity at 10 uM measured after 24 hrs by HRE-dependent dual luciferase reporter gene assay relative to control; format: cell-based; conditions: filed as activator
T1 sequence (whole entry): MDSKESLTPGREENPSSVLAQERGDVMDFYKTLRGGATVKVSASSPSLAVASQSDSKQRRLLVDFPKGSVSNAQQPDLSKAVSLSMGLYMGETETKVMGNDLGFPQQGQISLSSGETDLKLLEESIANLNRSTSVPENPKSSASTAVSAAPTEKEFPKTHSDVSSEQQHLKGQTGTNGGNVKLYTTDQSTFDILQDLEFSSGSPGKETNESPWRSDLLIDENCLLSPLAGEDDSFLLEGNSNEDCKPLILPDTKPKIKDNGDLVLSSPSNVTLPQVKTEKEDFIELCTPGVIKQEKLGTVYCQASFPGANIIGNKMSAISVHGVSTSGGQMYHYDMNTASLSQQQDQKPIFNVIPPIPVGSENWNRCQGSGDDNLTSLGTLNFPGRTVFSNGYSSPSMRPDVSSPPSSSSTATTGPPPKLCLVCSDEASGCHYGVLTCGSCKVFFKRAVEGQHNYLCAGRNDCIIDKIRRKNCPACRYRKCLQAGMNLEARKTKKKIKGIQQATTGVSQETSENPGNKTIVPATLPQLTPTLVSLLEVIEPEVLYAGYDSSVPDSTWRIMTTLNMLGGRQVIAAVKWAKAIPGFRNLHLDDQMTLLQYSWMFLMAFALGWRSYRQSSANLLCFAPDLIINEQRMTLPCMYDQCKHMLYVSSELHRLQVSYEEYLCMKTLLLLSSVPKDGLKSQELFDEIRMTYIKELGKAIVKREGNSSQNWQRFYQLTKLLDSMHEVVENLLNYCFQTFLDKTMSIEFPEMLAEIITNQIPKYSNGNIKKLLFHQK

Ishikawa [6] = experiment: Induction of HRE/Luc activity in human Ishikawa null cells at 10 uM incubated for 24 hrs in presence of progesterone by luciferase reporter gene assay; format: functional, cell-based
OVCAR-5 [7] = experiment: Increase in GR protein expression in human OVCAR-5 cells at 10 uM incubated for 24 hrs by western blot analysis; format: functional, cell-based
Ishikawa [8] = experiment: Induction of HRE/Luc activity in human Ishikawa null cells at 10 uM incubated for 24 hrs by luciferase reporter gene assay; format: functional, cell-based
[9] = target: T2, Estrogen receptor (Homo sapiens) (UniProt P03372); experiment: Induction of estrogen receptor in human T47D cells assessed as increase in ERE/Luc activity at 10 uM measured after 24 hrs by luciferase reporter gene assay relative to control; format: cell-based; conditions: filed as activator
T2 sequence (whole entry): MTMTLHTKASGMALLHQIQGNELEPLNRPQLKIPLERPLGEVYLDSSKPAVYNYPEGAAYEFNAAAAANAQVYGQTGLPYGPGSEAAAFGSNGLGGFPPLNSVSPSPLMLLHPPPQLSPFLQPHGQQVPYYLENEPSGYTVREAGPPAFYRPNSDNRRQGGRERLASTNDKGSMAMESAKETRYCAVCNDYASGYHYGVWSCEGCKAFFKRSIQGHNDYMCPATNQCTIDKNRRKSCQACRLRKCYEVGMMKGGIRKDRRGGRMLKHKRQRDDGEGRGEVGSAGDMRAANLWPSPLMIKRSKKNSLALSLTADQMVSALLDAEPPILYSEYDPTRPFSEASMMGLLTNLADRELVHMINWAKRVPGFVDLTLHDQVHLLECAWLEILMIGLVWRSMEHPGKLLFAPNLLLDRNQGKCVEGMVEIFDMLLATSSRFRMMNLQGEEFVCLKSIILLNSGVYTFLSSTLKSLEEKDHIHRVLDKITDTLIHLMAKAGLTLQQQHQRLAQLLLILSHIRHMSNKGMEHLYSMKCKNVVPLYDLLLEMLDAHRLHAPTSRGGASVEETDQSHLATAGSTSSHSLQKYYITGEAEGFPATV

[10] = target: T2, Estrogen receptor (Homo sapiens); experiment: Induction of estrogen receptor in human T47D cells assessed as increase in PR-A protein expression at 10 uM incubated for 24 hrs by western blot analysis; format: cell-based; conditions: filed as activator
Ishikawa [11] = experiment: Decrease in PR-A protein expression in human Ishikawa PR-B cells at 10 uM incubated for 24 hrs in presence of 100 nM progesterone by western blot analysis; format: functional, cell-based
Ishikawa [12] = experiment: Increase in PR-A protein expression in human Ishikawa PR-B cells at 10 uM incubated for 24 hrs in presence of 100 nM progesterone by western blot analysis; format: functional, cell-based
[13] = target: T2, Estrogen receptor (Homo sapiens); experiment: Induction of estrogen receptor in human T47D cells assessed as increase in PR-B protein expression at 10 uM incubated for 24 hrs by western blot analysis; format: cell-based; conditions: filed as activator
[14] = target: T1, Glucocorticoid receptor (Homo sapiens); experiment: Induction of glucocorticoid receptor in human Ishikawa PR-B cells assessed as potentiation of progesterone transcriptional activity by measuring increase in HRE-Luc activity at 10 uM measured after 24 hrs in presence of 5 to 100 nM progesterone by HRE-dependent dual luciferase reporter gene assay; format: cell-based; conditions: filed as activator
[15] = target: T2, Estrogen receptor (Homo sapiens); experiment: Induction of estrogen receptor in human T47D cells assessed as increase in PR-B protein expression at 10 uM incubated for 24 hrs in presence of SERM, 4-OH-TAM and progesterone by western blot analysis; format: cell-based
Ishikawa [16] = experiment: Effect on PR-A protein expression in human Ishikawa PR-B cells at 10 uM incubated for 24 hrs by western blot analysis; format: functional, cell-based
Mus musculus = experiment: In vivo potentiation of progesterone signalling in ovariectomized CD-1 mouse assessed as increase in FKBP5 expression in reproductive tract at 4 mg/kg, ip administered once a day for 7 days in presence of progesterone and measured on day 7 at 6 hrs post-last dosage by immunohistochemistry; format: functional, organism-based; conditions: time 7.0 day
T47D [17] = experiment: Effect on R5020-induced PR-A phosphorylation at Ser294 residue in human T47D cells at 10 uM incubated for 60 mins by western blot analysis; format: functional, cell-based
[18] = target: T2, Estrogen receptor (Homo sapiens); experiment: Induction of estrogen receptor in human T47D cells assessed as increase in HRE-luc activity at 10 uM measured after 24 hrs by HRE-dependent dual luciferase reporter gene assay relative to control; format: cell-based; conditions: filed as activator
[19] = target: T2, Estrogen receptor (Homo sapiens); experiment: Induction of estrogen receptor in human T47D cells assessed as potentiation of progesterone transcriptional activity by measuring increase in HRE-Luc activity at 10 uM measured after 24 hrs in presence of 5 nM progesterone by HRE-dependent dual luciferase reporter gene assay; format: cell-based; conditions: filed as activator
[20] = Induction of epithelial cells proliferation in uterus of ovariectomized CD-1 mouse at 4 mg/kg, ip administered once a day for 7 days and measured on day 7 at 6 hrs post-last dosage by PCNA staining based immunohistochemistry (reference value: 33.3%); format: organism-based; conditions: in vivo, 168 h, time 7 day
OVCAR-5 [21] = experiment: Repression of dexamethasone-induced HRE/Luc activity in human OVCAR-5 cells at 10 uM incubated for 24 hrs by luciferase reporter gene assay; format: functional
[22] = target: T2, Estrogen receptor (Homo sapiens); experiment: Induction of estrogen receptor in human T47D cells assessed as increase in PR-A protein expression at 10 uM incubated for 24 hrs in presence of SERM, 4-OH-TAM and progesterone by western blot analysis; format: cell-based
[23] = target: T1, Glucocorticoid receptor (Homo sapiens); experiment: Induction of glucocorticoid receptor in human Ishikawa PR-B cells transfected with scrambled siRNA assessed as potentiation of progesterone signalling by measuring increase in HRE/Luc activity at 10 uM incubated for 24 hrs in presence of progesterone by luciferase reporter gene assay relative to control; format: cell-based; conditions: filed as activator
Ishikawa [24] = experiment: Effect on PR-B protein expression in human Ishikawa PR-B cells at 10 uM incubated for 24 hrs by western blot analysis; format: functional, cell-based
Ishikawa [25] = experiment: Potentiation of progesterone receptor signalling in human Ishikawa null cells transfected with wild type PR assessed as induction of HRE/uc activity at 10 uM incubated for 24 hrs by luciferase reporter gene assay relative to control; format: functional
[26] = target: T2, Estrogen receptor (Homo sapiens); experiment: Induction of estrogen receptor in human T47D cells assessed as increase in PR-A protein expression at 10 uM incubated for 24 hrs in presence of SERM, 4-OH-TAM by western blot analysis; format: cell-based
[27] = target: T1, Glucocorticoid receptor (Homo sapiens); experiment: Agonist activity at GR in human OVCAR-5 cells assessed as induction of HRE/Luc activity at 1 to 10 uM incubated for 24 hrs by luciferase reporter gene assay; format: cell-based; conditions: dose 1-10 µM
Ishikawa [28] = experiment: Decrease in PR-B protein expression in human Ishikawa PR-B cells at 10 uM incubated for 24 hrs in presence of 100 nM progesterone by western blot analysis; format: functional, cell-based
T47D [29] = experiment: Effect on R5020-induced PR-B phosphorylation at Ser294 residue in human T47D cells at 10 uM incubated for 60 mins by western blot analysis; format: functional, cell-based
T47D [30] = experiment: Effect on PR-B phosphorylation at Ser294 residue in human T47D cells at 10 uM incubated for 60 mins by western blot analysis; format: functional, cell-based
[31] = target: T2, Estrogen receptor (Homo sapiens); experiment: Induction of estrogen receptor in human T47D cells assessed as increase in PR-B protein expression at 10 uM incubated for 24 hrs in presence of progesterone by western blot analysis; format: cell-based
[32] = target: T2, Estrogen receptor (Homo sapiens); experiment: Induction of estrogen receptor in human T47D cells assessed as increase in PR-A protein expression at 10 uM incubated for 24 hrs in presence of progesterone by western blot analysis; format: cell-based
T47D [33] = experiment: Effect on PR-A phosphorylation at Ser294 residue in human T47D cells at 10 uM incubated for 60 mins by western blot analysis; format: functional, cell-based
[34] = target: T2, Estrogen receptor (Homo sapiens); experiment: Induction of estrogen receptor in human T47D cells assessed as increase in PR-B protein expression at 10 uM incubated for 24 hrs in presence of SERM, 4-OH-TAM by western blot analysis; format: cell-based
Ishikawa [35] = experiment: Increase in GR protein expression in human Ishikawa PR-B cells at 10 uM incubated for 24 hrs by western blot analysis; format: functional, cell-based
OVCAR-5 [36] = experiment: Repression of dexamethasone-induced HRE/Luc activity in human OVCAR-5 cells at 1 to 5 uM incubated for 24 hrs by luciferase reporter gene assay; format: functional, cell-based; conditions: dose 1-5 µM

SMILES: O=c1c(-c2ccc(O)cc2)coc2cc3c(c(O)c12)OCO3
- fold change (FC) [1]: 30
- Activity [2]: 0.93%
- fold change (FC) (Ishikawa [3]): 38
- Activity (Ishikawa [4]): inactive
- fold change (FC) [5]: 1.2
- Activity (Ishikawa [6]): inactive
- Activity (OVCAR-5 [7]): inactive
- Activity (Ishikawa [8]): inactive
- fold change (FC) [9]: 4
- Activity [10]: Active
- inhibition (Ishikawa [11]): inactive
- Activity (Ishikawa [12]): inactive
- Activity [13]: Active
- Activity [14]: Active
- Activity [15]: inactive
- Activity (Ishikawa [16]): inactive
- Activity (Mus musculus): inactive
- Activity (T47D [17]): inactive
- fold change (FC) [18]: 1.07
- Activity [19]: Active
- Activity [20]: 18.4%
- inhibition at 10 µM (OVCAR-5 [21]): 22%
- Activity [22]: inactive
- fold change (FC) [23]: 44
- Activity (Ishikawa [24]): inactive
- fold change (FC) (Ishikawa [25]): 5.8
- Activity [26]: inactive
- Activity [27]: inactive
- inhibition (Ishikawa [28]): inactive
- Activity (T47D [29]): inactive
- Activity (T47D [30]): inactive
- Activity [31]: inactive
- Activity [32]: inactive
- Activity (T47D [33]): inactive
- Activity [34]: inactive
- Activity (Ishikawa [35]): Active
- inhibition (OVCAR-5 [36]): inactive

— ChEMBL document CHEMBL4840370, “Irilone, a Red Clover Isoflavone, Combined with Progesterone Enhances PR Signaling through the Estrogen and Glucocorticoid Receptors” (J Nat Prod, 2021)
